Test results as given in US20240374581A1, “SALT TYPES OF TRICYCLIC TETRAHYDRO ISOQUINOLINE DERIVATIVE” (JIANGSU HENGRUI PHARMACEUTICALS CO., LTD., priority 2021, published 2024).
pIC50: −log10 of the molar value.

Columns and labels:
[1] = test system: ERα Y537S mutant-expressing MCF7 cells; assay: Inhibition of proliferation of ERα mutant-expressing MCF7 cells; type: cell-based; conditions: Homo sapiens, 144 h, read-out: IC50, inhibitory effect on the proliferation of ERα mutant-expressing MCF7 cells
Description: The mutant estrogen receptor α (ERα) Y537S of human ERα protein was obtained by site-directed mutagenesis in a two-primer PCR manner using the cDNA of wild-type ESR1 gene (Accession No. NM000125) as a template. The sequences of the primers used in the mutation are as follows (the underlined nucleotides are the sites of mutation): Y537S: F-AAGAACGTGGTGCCCCTCTCTGACCTGCTGCTGGAGATG (SEQ ID NO: 1); R-CATCTCCAGCAGCAGGTCAGAGAGGGGCACCACGTTCTT (SEQ ID NO: 2). The cDNA of the mutant ESR1 was cloned into the lentiviral vector of interest pCDH-CMV-MCS-EF1-Puro. The lentiviral plasmid bearing the mutant ESR1 gene sequence and the lentiviral packaging plasmid were then transfected into HEK-293T cells (ATCC, CRL-3216) by using Lipofectamine 3000 Transfection Reagent (ThermoFisher Scientific, Cat #L3000075). […]
The ERα mutant-expressing MCF7 cells were cultured in an MEM (GE Healthcare, SH30024.01) complete medium containing 10% fetal bovine serum. […] The plate was let stand at room temperature for 10 min, and the luminescence signal value was read using a multilabel microplate reader (PerkinElmer, VICTOR 3). The IC50 value for the inhibitory activity of the compound was calculated according to the compound concentration and the luminescence signal value and is shown in Table 3.

ERα = ERα (Homo sapiens (Human), UniProt P03372); assay: Degradation of ERα in MCF-7 cells (ELISA); type: cell-based; conditions: 16 to 18 h, read-out: EC50, degradation of ERα
Method: ERα-positive breast cancer cell line MCF-7 cells were cultured in a DMEM/F12 medium (HyClone, SH30023.01) containing 10% fetal bovine serum (Corning, 35-010-CV). […] The 48-well plate was placed in the incubator for 16 to 18 h. A 96-well plate was coated with the capture antibody from the human ERα/NR3A1 total protein assay kit (R&D, DYC5715-5). […] The plate was placed in an incubator at 26° C. overnight. On day 3, the antibody-coated 96-well plate was washed once with PBS, and 200 μL of PBS containing 1% BSA was added to each well. The plate was incubated in an incubator at 37° C. for 1.5 h to be blocked. The cell culture medium supernatant was discarded. […] A biotinylated assay antibody was diluted to 0.4 μg/mL with PBS containing 1% BSA, and then 100 μL of the assay antibody was added to each well. The plate was incubated in an incubator at 37° C. for 1 h. The plate was then washed five more times, and 100 μL of avidin-HRP diluted 200-fold with PBS containing 1% BSA was added to each well. The plate was incubated at 37° C. for 30 min.

CYP3A4 = CYP3A4 (Homo sapiens (Human), UniProt P08684); assay: Time-dependent inhibition of site of metabolism of testosterone in human liver microsome CYP3A4; type: in vitro ADME; conditions: for pIC50: testosterone site
Method: • 1. Phosphate buffer (20×PBS, purchased from Sangon); • 2. NADPH (ACROS, A2646-71-1); • 3. Human liver microsome (Corning Gentest, Cat No. 452161, Lot No. 905002, Donor36); • 4. ABI QTrap 4000 LC-MS System (AB Sciex); • 5. ZORBAX Extend-C18, 3×50 mm, 3.5 m (Agilent, USA); • 6. CYP probe substrate (testosterone, Vocko, CAS No. [58-22-0]/75 μM) and positive control inhibitor (verapamil, Adamas Reagent Co., Ltd, Cat No. 25904A).
A 100 mM PBS buffer was prepared. A 0.25 mg/mL microsome solution, a 7.5 mM MgCl2 and a 5 mM NADPH solution were prepared using the buffer. A 30 mM stock solution was diluted with DMSO to obtain 30 mM, 10 mM, 3 mM, 1 mM, 0.3 mM, 0.1 mM, 0.03 mM and 0 mM serial solutions I, which were further diluted 200-fold with phosphate buffer (PBS) to obtain serial test solutions II (150, 50, 15, 5, 1.5, 0.5, 0.15 and 0 μM). A midazolam working solution was diluted with PBS to 15 μM.
The serial test solutions prepared above were well mixed by shaking and aliquoted in 20 μL portions into corresponding reaction plates (+NADPH, TO and -NADPH groups were set). Three parallel tests were set. 40 μL of the liver microsome working solution was added to each 96-well plate. 20 μL of a corresponding substrate solution was added to the TO plate. 20 μL of NADPH was added to the TO plate and +NADPH group. A timer was started, and the plates were incubated in a water bath at 37° C. After 30 min of incubation, the TO plate was taken out, and the reaction was terminated with 250 μL of an internal standard-containing ACN solution. The +NADPH group was supplemented with 20 μL of the corresponding substrate solution, and the −NADPH group was supplemented with 20 μL of the corresponding substrate solution and 20 μL of NADPH. A timer was started, and the plates were incubated in a water bath at 37° C. After 30 min of incubation, the plates were taken out, and the reactions were terminated with 250 μL of an internal standard-containing ACN solution. […]
The IC50 value of the drug for the site of metabolism of testosterone in CYP3A4 was calculated by Graphpad Prism and is shown in Table 8.

Chain of CYP3A4 (P08684 whole entry): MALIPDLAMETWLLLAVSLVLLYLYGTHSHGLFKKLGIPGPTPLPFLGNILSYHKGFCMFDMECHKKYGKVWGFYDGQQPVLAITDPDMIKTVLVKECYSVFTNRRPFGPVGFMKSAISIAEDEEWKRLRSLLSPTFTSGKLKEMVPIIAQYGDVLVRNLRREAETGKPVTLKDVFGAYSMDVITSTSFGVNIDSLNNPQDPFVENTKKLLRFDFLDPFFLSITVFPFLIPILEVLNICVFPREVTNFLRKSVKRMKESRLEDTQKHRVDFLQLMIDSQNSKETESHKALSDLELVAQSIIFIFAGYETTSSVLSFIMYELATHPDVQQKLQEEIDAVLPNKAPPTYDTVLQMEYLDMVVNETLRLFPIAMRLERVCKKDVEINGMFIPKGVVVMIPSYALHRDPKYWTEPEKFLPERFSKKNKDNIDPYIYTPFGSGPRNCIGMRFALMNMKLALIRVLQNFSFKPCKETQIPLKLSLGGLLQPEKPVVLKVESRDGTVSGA
Chain of ERα (P03372 whole entry): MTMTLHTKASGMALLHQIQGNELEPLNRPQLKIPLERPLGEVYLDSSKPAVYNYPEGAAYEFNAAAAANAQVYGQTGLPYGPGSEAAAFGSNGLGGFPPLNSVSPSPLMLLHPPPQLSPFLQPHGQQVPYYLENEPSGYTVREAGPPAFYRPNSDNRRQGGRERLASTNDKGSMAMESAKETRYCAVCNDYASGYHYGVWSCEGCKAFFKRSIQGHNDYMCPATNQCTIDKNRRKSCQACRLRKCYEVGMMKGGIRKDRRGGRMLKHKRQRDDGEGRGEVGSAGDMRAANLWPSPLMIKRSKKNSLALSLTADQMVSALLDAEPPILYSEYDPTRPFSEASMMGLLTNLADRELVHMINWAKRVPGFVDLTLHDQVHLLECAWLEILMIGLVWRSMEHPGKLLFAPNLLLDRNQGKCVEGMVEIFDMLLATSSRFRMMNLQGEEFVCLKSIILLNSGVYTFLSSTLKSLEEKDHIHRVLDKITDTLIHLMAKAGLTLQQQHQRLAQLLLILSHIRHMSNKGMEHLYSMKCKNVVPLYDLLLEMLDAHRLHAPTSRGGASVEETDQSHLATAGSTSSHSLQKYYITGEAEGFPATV

Question: Which results are given for `[2H]C1([2H])Oc2cc3c(cc2O1)[C@@H](c1ccc(NC2CN(CCCF)C2)cn1)N(CC(F)(F)CO)[C@H](C)C3` [Compound 1, 2,2-Difluoro-3-((5S,7R)-5-(5-((1-(3-fluoropropyl)azetidin-3-yl)amino)pyridin-2-yl)-7-methyl-7,8-dihydro-[1,3]dioxolo[4,5-g]isoquinolin-6(5H)-yl-2,2-d2)propan-1-ol]?
Answer: pIC50 [1]: 8.87; DC50 (ERα): 0.38 nM; IC50 Shift (CYP3A4; microsomes): No TDI; pIC50 (CYP3A4; pre-incubation with NADPH 30 min): < 4.52; pIC50 (CYP3A4; pre-incubation without NADPH): < 4.52
